The test has as its system HCV 1b genotype replicon. Briefly: HCV replicon assay (qRT-PCR or luciferase), genotype 1b. Type of test: cell-based. Conditions: Hepatitis C virus, Table 11, qRT-PCR or luciferase assay, read-out: Genotype-1b replicon EC50 Range. The source says: HCV replicon cell lines (kindly provided by R. Bartenschlager) isolated from colonies as described by Lohman et. al. (Lohman et al. (1999) Science 285: 110-113, expressly incorporated by reference in its entirety) and used for all experiments. The HCV replicon has the nucleic acid sequence set forth in EMBL Accession No.: AJ242651, the coding sequence of which is from nucleotides 1801 to 8406.
The coding sequence of the published HCV replicon was synthesized and subsequently assembled in a modified plasmid pBR322 (Promega, Madison, Wis.) using standard molecular biology techniques. One replicon cell line (“SGR 11-7”) stably expresses HCV replicon RNA which consists of (i) the HCV 5′UTR fused to the first 12 amino acids of the capsid protein, (ii) the neomycin phosphotransferase gene (neo), (iii) the IRES from encephalomyocarditis virus (EMCV), and (iv) HCV […] to NSSB genes and the HCV 3′UTR. Another replicon cell line (“Huh-luc/neo-ET”) described by Vrolijk et. al. (Vrolijk et. al. (2003) Journal of Virological Methods 110:201-209, expressly incorporated by reference in its entirety) stably expresses HCV replicon RNA which consists of (i) the HCV 5′UTR fused to the first 12 amino acids of the capsid protein, (ii) the firefly luciferase reporter gene, (iii) the ubiquitin gene, (iv) the neomycin phosphotransferase gene (neo), (v) the IRES from encephalomyocarditis virus (EMCV), and (vi) HCV NS3 to NS5B genes that harbor cell culture adaptive mutations (E1202G, T1280I, K1846T) and the HCV 3′UTR.
These cell lines were maintained at 37° C., 5% CO2, 100% relative humidity in DMEM (Cat#11965-084, Invitrogen), with 10% fetal calf serum (“FCS”, Invitrogen), 1% non-essential amino acids (Invitrogen), 1% of Glutamax (Invitrogen), 1% of 100× penicillin/streptomycin (Cat#15140-122, Invitrogen) and Geneticin (Cat#10131-027, Invitrogen) at 0.75 mg/ml or 0.5 mg/ml for 11-7 and Huh-luc/neo-ET cells, respectively.
EC50 values of single agent compounds and combinations were determined by HCV RNA detection using quantitative RT-PCR, according to the manufacturer's instructions, with a TAQMAN® One-Step RT-PCR Master Mix Reagents Kit (Cat#AB 4309169, Applied Biosystems) on an ABI Model 7500 thermocycler. The TaqMan primers used for detecting and quantifying HCV RNA were obtained from Integrated DNA Technologies. HCV RNA was normalized to GAPDH RNA levels in drug-treated cells, which is detected and quantified using the Human GAPDH Endogenous Control Mix (Applied Biosystems, AB 4310884E). Total cellular RNA is purified from 96-well plates using the RNAqueous 96 kit (Ambion, Cat# AM1812). Chemical agent cytotoxicity is evaluated using an MTS assay according to the manufacturer's directions (Promega).
Since clinical drug resistance often develops in viral infections following single agent therapies, there is a need to assess the additive, antagonistic, or synergistic properties of combination therapies. We used the HCV replicon system to assess the potential use of the compound of the present invention or in combination therapies with Interferon alpha, cyclosporine analogs and inhibitors targeting other HCV proteins. The acute effects of a single or combinations of drugs are studied in the “Huh-luc/neo-ET” replicon with each chemical agent titrated in an X or Y direction in a 6 point two-fold dilution curve centered around the EC50 of each drug. Briefly, replicon cells are seeded at 7,000 cells per well in 90 ul DMEM (without phenol red, Invitrogen Cat.#31053-036) per well with 10% FCS, 1% non-essential amino acids, 1% of Glutamax and 1% of 100× penicillin/streptomycin and incubated overnight at 37° C., 5% CO2, 100% relative humidity. […]

Consider `COC(=O)N[C@H](C(=O)N1CCC[C@H]1c1nc(-c2ccc(C#Cc3cc4nc([C@@H]5CCCN5C(=O)[C@@H](NC(=O)OC)C(C)C)[nH]c4cc3Cl)cc2)c[nH]1)C(C)C` [Example 485], for which the EC50 is below 1 nM.
Under `COC(=O)N[C@H](C(=O)N1CCC[C@H]1c1nc(-c2ccc(C#Cc3ccc4[nH]c([C@@H]5CC(=O)CN5C(=O)[C@@H](NC(=O)OC)C(C)C)nc4c3)cc2)c[nH]1)C(C)C` [Example 486] stands below 1 nM; under `[2H]c1c([2H])c(-c2c[nH]c([C@@H]3CCCN3C(=O)[C@@H](NC(=O)OC)C(C)C)n2)c([2H])c([2H])c1C#Cc1ccc2[nH]c([C@@H]3CCCN3C(=O)[C@@H](NC(=O)OC)C(C)C)nc2c1` [Example 488], below 1 nM; under `COC(=O)N[C@H](C(=O)N1CCC[C@H]1c1nc(-c2ccc3cc(-c4cc5nc([C@@H]6CCCN6C(=O)[C@@H](NC(=O)OC)C(C)C)[nH]c5cc4Cl)ccc3c2)c[nH]1)C(C)C` [Example 490], below 1 nM.
To `COC(=O)N[C@H](C(=O)N1CCC[C@H]1c1nc(-c2ccc(/C=C/c3ccc4[nH]c([C@@H]5CCCN5C(=O)[C@@H](NC(=O)OC)C(C)C)nc4c3)cc2)c[nH]1)C(C)C` [Example 492] belongs below 1 nM.
To `C=C(c1ccc(-c2c[nH]c([C@@H]3CCCN3C(=O)[C@@H](NC(=O)OC)C(C)C)n2)cc1)c1ccc2nc([C@@H]3CCCN3C(=O)[C@@H](NC(=O)OC)C(C)C)[nH]c2c1` [Example 493] belongs below 1 nM; to `COC(=O)N[C@H](C(=O)N1CCC[C@H]1c1nc(-c2ccc(CCc3ccc4[nH]c([C@@H]5CCCN5C(=O)[C@@H](NC(=O)OC)C(C)C)nc4c3)cc2)c[nH]1)C(C)C` [Example 494], below 1 nM; to `COC(=O)N[C@H](C(=O)N1CCC[C@H]1c1ncc(-c2ccc([C@H]3C[C@@H]3c3ccc4nc([C@@H]5CCCN5C(=O)[C@@H](NC(=O)OC)C(C)C)[nH]c4c3)cc2)[nH]1)C(C)C` [Example 497-a], below 1 nM.
As to `COC(=O)N[C@H](C(=O)N1CCC[C@H]1c1ncc(-c2ccc([C@@H]3C[C@H]3c3ccc4nc([C@@H]5CCCN5C(=O)[C@@H](NC(=O)OC)C(C)C)[nH]c4c3)cc2)[nH]1)C(C)C` [Example 497-b], the 50% effective concentration (EC50) was below 1 nM.
Under `COC(=O)N[C@H](C(=O)N1CCC[C@H]1c1ncc(-c2ccc(-c3ccc(-c4ccc5nc([C@@H]6CCCN6C(=O)[C@@H](NC(=O)OC)C(C)C)[nH]c5c4)cc3)cc2)[nH]1)C(C)C` [Example 499] stands below 1 nM; under `COC(=O)N[C@H](C(=O)N1CCC[C@H]1c1nc(-c2ccc(C#Cc3ccc4[nH]c([C@@H]5CCCN5C(=O)OC(C)(C)C)nc4c3)cc2)c[nH]1)C(C)C` [Example 500], 1 to 10 nM.
For `COC(=O)N[C@@H](C)C(=O)N1CCC[C@H]1c1nc2cc(C#Cc3ccc(-c4c[nH]c([C@@H]5CCCN5C(=O)[C@@H](NC(=O)OC)C(C)C)n4)cc3)ccc2[nH]1` [Example 501], the EC50 was below 1 nM.
Under `CC[C@H](NC(=O)OC)C(=O)N1CCC[C@H]1c1nc2cc(C#Cc3ccc(-c4c[nH]c([C@@H]5CCCN5C(=O)[C@@H](NC(=O)OC)C(C)C)n4)cc3)ccc2[nH]1` [Example 502] stands below 1 nM; under `CCC[C@H](NC(=O)OC)C(=O)N1CCC[C@H]1c1nc2cc(C#Cc3ccc(-c4c[nH]c([C@@H]5CCCN5C(=O)[C@@H](NC(=O)OC)C(C)C)n4)cc3)ccc2[nH]1` [Example 503], below 1 nM; under `COC(=O)N[C@H](C(=O)N1CCC[C@H]1c1nc(-c2ccc(C#Cc3ccc4[nH]c([C@@H]5CCCN5C(=O)[C@H](NC(=O)OC)c5ccccc5)nc4c3)cc2)c[nH]1)C(C)C` [Example 504], below 1 nM.
As to `COC(=O)N[C@H](C(=O)N1CCC[C@H]1c1nc(-c2ccc(C#Cc3ccc4[nH]c([C@@H]5CCCN5C(=O)[C@@H](NC(=O)OC)[C@@H](C)OC)nc4c3)cc2)c[nH]1)C(C)C` [Example 505], the EC50 was below 1 nM.
To `COC(=O)N[C@H](C(=O)N1CCC[C@H]1c1nc(-c2ccc(C#Cc3ccc4[nH]c([C@@H]5CCCN5C(=O)[C@@H](NC(C)=O)C(C)C)nc4c3)cc2)c[nH]1)C(C)C` [Example 506] belongs below 1 nM; to `COC(=O)N[C@H](C(=O)N1CCC[C@H]1c1nc(-c2ccc(C#Cc3ccc4[nH]c([C@@H]5CCCN5C(=O)[C@@H](c5ccccc5)C(C)C)nc4c3)cc2)c[nH]1)C(C)C` [Example 507], below 1 nM; to `COC(=O)N[C@H](C(=O)N1CCC[C@H]1c1nc(-c2ccc(C#Cc3ccc4[nH]c([C@@H]5CCCN5C(=O)[C@H](NC(=O)OC)C(C)C)nc4c3)cc2)c[nH]1)C(C)C` [Example 508], below 1 nM.
To `COC(=O)N[C@H](C(=O)N1CCC[C@H]1c1nc2cc(C#Cc3ccc(-c4c[nH]c([C@@H]5CCCN5C(=O)[C@@H](NC(=O)OC)C(C)C)n4)cc3)ccc2[nH]1)c1ccccc1` [Example 509] belongs below 1 nM; to `COC(=O)N[C@H](C(=O)N1CCC[C@H]1c1nc2cc(C#Cc3ccc(-c4c[nH]c([C@@H]5CCCN5C(=O)OC(C)(C)C)n4)cc3)ccc2[nH]1)C(C)C` [Example 510], below 1 nM; to `COC(=O)N[C@H](C(=O)N1CCC[C@H]1c1nc2cc(C#Cc3ccc(-c4c[nH]c([C@@H]5CCCN5C(=O)[C@@H](NC(C)=O)C(C)C)n4)cc3)ccc2[nH]1)C(C)C` [Example 511], below 1 nM.
Consider `COC(=O)N[C@H](C(=O)N1CCC[C@H]1c1nc2cc(C#Cc3ccc(-c4c[nH]c([C@@H]5CCCN5C(=O)[C@@H](c5ccccc5)C(C)C)n4)cc3)ccc2[nH]1)C(C)C` [Example 512], for which the EC50 was below 1 nM.
To `COC(=O)N[C@H](C(=O)N1CCC[C@H]1c1nc2cc(C#Cc3ccc(-c4c[nH]c([C@@H]5CCCN5C(=O)[C@H](NC(=O)OC)C(C)C)n4)cc3)ccc2[nH]1)C(C)C` [Example 513] belongs below 1 nM; to `COC(=O)N[C@H](C(=O)N1CCC[C@H]1c1nc(-c2ccc(C#Cc3ccc4[nH]c([C@@H]5CCCN5C(=O)[C@@H](NC(=O)OC)C(C)C)nc4c3)cc2)c[nH]1)c1ccccc1` [Example 514], below 1 nM.
For `COC(=O)N[C@H](C(=O)N1CCC[C@H]1c1ncc(-c2ccc(C#Cc3ccc4nc([C@@H]5CCCN5C(=O)[C@@H](NC(=O)OC)C(C)C)[nH]c4c3)cc2)[nH]1)C(C)C` [Example 515], the EC50 is below 1 nM.
Under `COC(=O)N[C@H](C(=O)N1CCC[C@H]1c1nc(-c2ccc(C#Cc3ccc4[nH]c([C@@H]5C[C@@H](O)CN5C(=O)[C@@H](NC(=O)OC)C(C)C)nc4c3)cc2)c[nH]1)C(C)C` [Example 517] stands below 1 nM; under `COC(=O)N[C@H](C(=O)N1CCC[C@H]1c1nc(-c2ccc(C#Cc3ccc4[nH]c([C@@H]5CC(F)(F)CN5C(=O)[C@@H](NC(=O)OC)C(C)C)nc4c3)cc2)c[nH]1)C(C)C` [Example 519], below 1 nM.
Under `COC(=O)N[C@H](C(=O)N1CCC[C@H]1c1nc(-c2ccc(C#Cc3ccc4[nH]c([C@@H]5CC6(CC6)CN5C(=O)[C@@H](NC(=O)OC)C(C)C)nc4c3)cc2)c[nH]1)C(C)C` [Example 521] stands below 1 nM; under `COC(=O)N[C@H](C(=O)N1CC2(CC2)C[C@H]1c1nc(-c2ccc(C#Cc3ccc4[nH]c([C@@H]5CCCN5C(=O)[C@@H](NC(=O)OC)C(C)C)nc4c3)cc2)c[nH]1)C(C)C` [Example 523], below 1 nM; under `COC(=O)N[C@H](C(=O)N1CC2(CC2)C[C@H]1c1nc(-c2ccc(C#Cc3ccc4[nH]c([C@@H]5CC6(CC6)CN5C(=O)[C@@H](NC(=O)OC)C(C)C)nc4c3)cc2)c[nH]1)C(C)C` [Example 525], below 1 nM.

Broadly, the EC50 is the concentration at which the effect is half-maximal.

The record behind these values is US9765087B2, “Benzimidazole derivatives” (ENANTA PHARMACEUTICALS, INC., priority 2009, dated 2017).
